Data: US12077503B2, “Substituted cyclic amides and their use as herbicides” (FMC CORPORATION, priority 2015, dated 2024)

Legend:
Type in all cases: in vivo
[1] = tested on: Monochoria (Monochoria vaginalis); assay: Test F flooded paddy test; set-up: key: 0 = no effect, 100 = complete control; details: Flood
[2] = tested on: barnyardgrass (Echinochloa crus-galli); assay: Test F flooded paddy test; set-up: key: 0 = no effect, 100 = complete control; details: Flood
[3] = tested on: bearded sprangletop (Leptochloa fascicularis); assay: Test F flooded paddy test; set-up: key: 0 = no effect, 100 = complete control; details: Flood
[4] = tested on: transplanted rice seedlings (Oryza sativa cv. ‘Japonica—M202’); assay: Test F flooded paddy test; set-up: key: 0 = no effect, 100 = complete control; details: Flood
[5] = tested on: water seeded rice seedlings (Rice, W. S. Jap, Oryza sativa cv. ‘Japonica—M202’); assay: Test F flooded paddy test; set-up: key: 0 = no effect, 100 = complete control; details: Flood
[6] = tested on: horseweed (Conyza canadensis); assay: Test E preemergence; details: scale 0 to 100
In short: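 Preemergence to seeds in silt loam, or postemergence to 1- to 4-leaf plants in peat-based potting mix; compound formulated in non-phytotoxic solvent plus surfactant. Greenhouse, 14–21 d. Visual injury vs. controls, 0 = no effect, 100 = complete control.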

corn (Zea mays) = assay: Test E postemergence; details: scale 0 to 100
Source text: (§1) Seeds of plant species selected from corn (Zea mays), soybean (Glycine max), velvetleaf (Abutilon theophrasti), lambsquarters (Chenopodium album), poinsettia, wild (wild poinsettia, Euphorbia heterophylla), pigweed, palmer (palmer pigweed, Amaranthus palmeri), waterhemp (common waterhemp, Amaranthus rudis), surinam grass (Brachiaria decumbens), crabgrass, large (large crabgrass, Digitaria sangumnalis), crabgrass, Brazil (Brazilian crabgrass, Digitaria horizontalis), Panicum, fall (fall Panicum, Panicum dichotomiflorum), foxtail, giant (giant foxtail, Setaria faberii), foxtail, green (green foxtail, Setaria viridis), goosegrass (Eleusine indica), johnsongrass (Sorghum halepense), ragweed (common ragweed, Ambrosia elatior), barnyardgrass (Echinochloa crus-galli), sandbur (southern sandbur, Cenchrus echinatus), arrowleaf Sida (Sida rhombifolia), ryegrass, Italian (Italian ryegrass, Lolium multiflorum), dayflower, VA (Virginia dayflower, Commelina virginica), field bindweed (Convolvulus arvensis), morningglory (Ipomoea coccinea), nightshade (eastern black nightshade, Solanum ptycanthum), Kochia (Kochia scoparia), nutsedge, yellow (yellow nutsedge, Cyperus esculentus), horseweed (Conyza canadensis), and beggarticks (hairy beggarticks, Bidens pilosa), were planted into a silt loam soil and treated preemergence with test chemicals formulated in a non-phytotoxic solvent mixture which included a surfactant.
(§2) At the same time, plants selected from these crop and weed species were planted in pots containing Sunshine Redi-Earth planting medium comprising spaghnum peat moss, vermiculite, starter nutrients and dolomitic limestone and treated with postemergence applications of a test chemical formulated in the same manner. Plants ranged in height from 2 to 18 cm (1- to 4-leaf stage) for postemergence treatments. Treated plants and controls were maintained in a greenhouse for 14 to 21 d, after which time all species were compared to controls and visually evaluated. Plant response ratings, summarized in Table E, are based on a scale of 0 to 100 where 0 is no effect and 100 is complete control. A dash (-) response means no test result.

[7] = tested on: crabgrass, large (large crabgrass, Digitaria sangumnalis); assay: Test E postemergence; details: scale 0 to 100
Source text: as §1, §2

[8] = tested on: foxtail, giant (giant foxtail, Setaria faberii); assay: Test E postemergence; details: scale 0 to 100
Source text: as §1, §2

[9] = tested on: pigweed, palmer (palmer pigweed, Amaranthus palmeri); assay: Test E postemergence; details: scale 0 to 100
Source text: as §1, §2

soybean (Glycine max) = assay: Test E postemergence; details: scale 0 to 100
Source text: as §1, §2

[10] = tested on: waterhemp (common waterhemp, Amaranthus rudis); assay: Test E postemergence; details: scale 0 to 100
Source text: as §1, §2

CN1C[C@H](c2ccc(F)c(F)c2)[C@@H](C(=O)Nc2ccccc2F)C1=O [Compound 596, (3S,4S)-4-(3,4-difluorophenyl)-N-(2-fluorophenyl)-1-methyl-2-oxo-3-pyrrolidinecarboxamide]
Plant response rating: Monochoria ([1]; 16 g ai/ha): 25 | Plant response rating: Monochoria ([1]; 32 g ai/ha): 45 | Plant response rating: Monochoria ([1]; 64 g ai/ha): 100 | Plant response rating: Monochoria ([1]; 125 g ai/ha): 100 | Plant response rating: Monochoria ([1]; 250 g ai/ha): 100 | Plant response rating: Barnyardgrass ([2]; 16 g ai/ha): 45 | Plant response rating: Barnyardgrass ([2]; 32 g ai/ha): 65 | Plant response rating: Barnyardgrass ([2]; 64 g ai/ha): 100 | Plant response rating: Barnyardgrass ([2]; 125 g ai/ha): 100 | Plant response rating: Barnyardgrass ([2]; 250 g ai/ha): 100 | Plant response rating: Sprangletop, Brdd. ([3]; 16 g ai/ha): 0 | Plant response rating: Sprangletop, Brdd. ([3]; 32 g ai/ha): 40 | Plant response rating: Sprangletop, Brdd. ([3]; 64 g ai/ha): 85 | Plant response rating: Sprangletop, Brdd. ([3]; 125 g ai/ha): 85 | Plant response rating: Sprangletop, Brdd. ([3]; 250 g ai/ha): 95 | Plant response rating: Rice, Transplanted ([4]; 16 g ai/ha): 0 | Plant response rating: Rice, Transplanted ([4]; 32 g ai/ha): 0 | Plant response rating: Rice, Transplanted ([4]; 64 g ai/ha): 0 | Plant response rating: Rice, Transplanted ([4]; 125 g ai/ha): 0 | Plant response rating: Rice, Transplanted ([4]; 250 g ai/ha): 0 | Plant response rating: Rice, Water Seeded ([5]; 16 g ai/ha): 0 | Plant response rating: Rice, Water Seeded ([5]; 32 g ai/ha): 0 | Plant response rating: Rice, Water Seed. ([5]; 64 g ai/ha): 10 | Plant response rating: Rice, Water Seed. ([5]; 125 g ai/ha): 10 | Plant response rating: Rice, Water Seeded ([5]; 250 g ai/ha): 15

CN1C[C@H](c2ccc(C(F)(F)F)cc2)[C@@H](C(=O)Nc2cccc(F)c2F)C1=O [Compound 623, (3S,4S)—N-(2,3-difluorophenyl)-1-methyl-2-oxo-4-[4-(trifluoromethyl)phenyl]-3-pyrrolidinecarboxamide]
Plant response rating: Horseweed ([6]; 31 g ai/ha): 80 | Plant response rating: Horseweed ([6]; 62 g ai/ha): 90 | Plant response rating: Horseweed ([6]; 125 g ai/ha): 90 | Plant response rating: Horseweed ([6]; 250 g ai/ha): 90 | Plant response rating: Corn (corn (Zea mays); 16 g ai/ha): 0 | Plant response rating: Corn (corn (Zea mays); 31 g ai/ha): 0 | Plant response rating: Corn (corn (Zea mays); 62 g ai/ha): 1 | Plant response rating: Corn (corn (Zea mays); 125 g ai/ha): 1 | Plant response rating: Corn (corn (Zea mays); 250 g ai/ha): 4 | Plant response rating: Crabgrass, Large ([7]; 16 g ai/ha): 1 | Plant response rating: Crabgrass, Large ([7]; 31 g ai/ha): 10 | Plant response rating: Crabgrass, Large ([7]; 62 g ai/ha): 10 | Plant response rating: Crabgrass, Large ([7]; 125 g ai/ha): 30 | Plant response rating: Crabgrass, Large ([7]; 250 g ai/ha): 55 | Plant response rating: Foxtail, Giant ([8]; 16 g ai/ha): 5 | Plant response rating: Foxtail, Giant ([8]; 31 g ai/ha): 54 | Plant response rating: Foxtail, Giant ([8]; 62 g ai/ha): 56 | Plant response rating: Foxtail, Giant ([8]; 125 g ai/ha): 78 | Plant response rating: Foxtail, Giant ([8]; 250 g ai/ha): 69 | Plant response rating: Pigweed, Palmer ([9]; 16 g ai/ha): 6 | Plant response rating: Pigweed, Palmer ([9]; 31 g ai/ha): 19 | Plant response rating: Pigweed, Palmer ([9]; 62 g ai/ha): 43 | Plant response rating: Pigweed, Palmer ([9]; 125 g ai/ha): 40 | Plant response rating: Pigweed, Palmer ([9]; 250 g ai/ha): 68 | Plant response rating: Soybean (soybean (Glycine max); 16 g ai/ha): 0 | Plant response rating: Soybean (soybean (Glycine max); 31 g ai/ha): 0 | Plant response rating: Soybean (soybean (Glycine max); 62 g ai/ha): 20 | Plant response rating: Soybean (soybean (Glycine max); 125 g ai/ha): 19 | Plant response rating: Soybean (soybean (Glycine max); 250 g ai/ha): 35 | Plant response rating: Waterhemp ([10]; 16 g ai/ha): 11 | Plant response rating: Waterhemp ([10]; 31 g ai/ha): 45 | Plant response rating: Waterhemp ([10]; 62 g ai/ha): 55 | Plant response rating: Waterhemp ([10]; 125 g ai/ha): 65 | Plant response rating: Waterhemp ([10]; 250 g ai/ha): 68
